Assay results published in patent US7148240B2, “Aminoalkoxybenzoyl-benzofuran or benzothiophene derivatives, method for preparing same and compositions containing same” (Sanofi-Aventis, priority 2000, dated 2006).

melting point [°C]	SMILES
181 to 183	CCCCc1oc2cc(C)c(C(=O)OC)cc2c1C(=O)c1ccc(OCCCN2CCCCC2)cc1.Cl
160	CCCCc1oc2cccc(C(=O)OC)c2c1C(=O)c1ccc(OCCCN2CCCCC2)cc1.O=C(O)C(=O)O [Example 31, Methyl 2-butyl-3-[4-(3-(1-piperidinyl)propoxy]benzoyl]-1-benzofuran-4-carboxylate oxalate]
